According to patent publication US8329913B2, “Carbazole derivative, solvate thereof, or pharmaceutically acceptable salt thereof” (Zeria Pharmaceutical Co., Ltd., priority 2004, dated 2012):

Target: T1, human PPARγ (Homo sapiens, UniProt P37231)
T1 construct: 1.6 kb of fragment of the prepared plasmid pGEMT-hPPARg2 including human PPARγ gene; expressed in transfected cells; host or cells: CV-1 cells, transient transfection with pCI-hPPARg2, pCI-hRXRa and the reporter pGL3-PPRE3-TK
T1 sequence (P37231 1-505): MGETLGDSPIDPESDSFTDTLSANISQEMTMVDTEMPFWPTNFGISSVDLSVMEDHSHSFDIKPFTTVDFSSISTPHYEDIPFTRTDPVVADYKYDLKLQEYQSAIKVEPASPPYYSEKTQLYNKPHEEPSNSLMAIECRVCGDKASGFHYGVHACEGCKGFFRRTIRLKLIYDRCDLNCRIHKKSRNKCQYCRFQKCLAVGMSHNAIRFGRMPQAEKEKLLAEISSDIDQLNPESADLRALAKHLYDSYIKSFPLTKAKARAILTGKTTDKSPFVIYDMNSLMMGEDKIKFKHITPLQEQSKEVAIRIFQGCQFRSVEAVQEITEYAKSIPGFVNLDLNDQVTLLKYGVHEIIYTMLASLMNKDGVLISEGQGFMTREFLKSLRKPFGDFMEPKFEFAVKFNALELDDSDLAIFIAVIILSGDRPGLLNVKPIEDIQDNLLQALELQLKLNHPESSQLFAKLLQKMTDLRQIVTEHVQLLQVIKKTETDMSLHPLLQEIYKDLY
T1 sequence (P19793 1-462 partner): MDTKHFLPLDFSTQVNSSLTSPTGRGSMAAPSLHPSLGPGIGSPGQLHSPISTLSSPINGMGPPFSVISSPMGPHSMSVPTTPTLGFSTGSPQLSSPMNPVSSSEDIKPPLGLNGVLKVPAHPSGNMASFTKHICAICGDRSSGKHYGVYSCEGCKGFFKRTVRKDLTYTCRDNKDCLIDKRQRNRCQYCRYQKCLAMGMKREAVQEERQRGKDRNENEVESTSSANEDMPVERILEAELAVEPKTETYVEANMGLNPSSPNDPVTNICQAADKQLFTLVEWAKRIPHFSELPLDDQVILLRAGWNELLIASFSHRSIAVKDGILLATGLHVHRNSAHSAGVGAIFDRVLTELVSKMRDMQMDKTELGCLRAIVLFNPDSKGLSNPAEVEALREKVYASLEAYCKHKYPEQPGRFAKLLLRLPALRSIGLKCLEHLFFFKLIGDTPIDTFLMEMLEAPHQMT
Test: Human PPARγ antagonist assay (luciferase reporter in transfected CV-1 cells)
Assay type: cell-based
Details: for IC50: CV-1 cells expressing human PPARγ and RXRα with reporter plasmid, pioglitazone 1 μM as stimulant, 24 hours, read-out: Human PPARγ antagonist activities, Inhibition IC50
Method: CV-1 cells (96 well plate), where human PPARγ and RXRα has expressed in the transient transfection of reporter plasmid (see reference 5a) were washed once with PBS (100 μL/well), and then supplemented with 100 μL/well […], as well as pioglitazone (not limited to pioglitazone shown as an example, but may be any PPARγ agonist) at a final concentration of 1 μM as a stimulant were added, and incubated in a 5% CO2 incubator at 37° C. for 24 hours. After removing the medium, the CV-1 cells were washed once with PBS (100 μL/well), and supplemented with 60 μL/well of 1× Passive Lysis Buffer (manufactured by Promega Corporation). The CV-1 cells were incubated at room temperature for 30 minutes, stirred, and then by using Dual-Luciferase Reporter Assay System (manufactured by Promega Corporation), luciferase activities of firefly and renilla were measured using 1420 ARVO Multilabel Counter (manufactured by Wallac Oy). Also, the same experiments as that described above were respectively carried out for the cases where only the above-mentioned stimulants (100 nM, 1 μM, 10 μM) were used, where only the above-mentioned test compounds were used, or where neither was used (nonsupplemented), and luciferase activities of firefly and renilla were measured. Values corrected by dividing the firefly luciferase activities by the renilla luciferase activities were calculated as specific activities and used for evaluations.
Human PPARγ2 antagonist activities of the test compounds were evaluated by using a percentage (inhibition) where the specific activity in case only […] was added is regarded as 0% and the specific activity in case the test compound and the stimulant were not added is regarded as 100%. Moreover, the concentration of the test compound indicating the inhibition rate of 50% was calculated as the IC50 value. Also, human PPARγ2 agonist activities of the test compounds were evaluated by using a percentage (activity) where the specific activity when nonsupplemented is regarded as 0% and the specific activity in case only 10 μM stimulant was added is regarded as 100%, from the specific activity in case only the test compound is used.
CV-1 cells were cultured in DMEM medium (manufactured by Invitrogen Corporation) including 10% fetal bovine serum (manufactured by Dainippon Pharmaceutical Co., Ltd.) in 225T-Flask (manufactured by Corning Costar). The cells were detached by 0.5 g/L trypsin-0.2 g/L EDTA (ethylene diamine tetra-acetic acid) (manufactured by Invitrogen Corporation), and then suspended in the DMEM medium including 10% fetal bovine serum to a cell concentration of 2×10^5 cells/mL. Thereafter, the cells were seeded into 96 well plate at 2×10^4 cells/0.1 mL/well, incubated in the 5% CO2 incubator at 37° C. overnight, and then the plasmids prepared by the above-mentioned reference 1a, reference 3a, and reference 4a were transfected into cells by using a lipofectamine reagent (manufactured by Invitrogen Corporation) according to the attached manual.
Namely, after CV-1 cells were cultured overnight, the cells were washed with PBS (100 μL/well). Thereafter the cells were incubated for 5 hours at 37° C./5% CO2 in the MEM medium (manufactured by Invitrogen Corporation) including 430 ng/mL of human PPARγ expression plasmid (pCI-hPPARg2) prepared by the reference 1a, 430 ng/mL of human RXRα expression plasmid (pCI-hRXRa) prepared by the reference 3a, and 140 ng/mL of the reporter plasmid (pGL3-PPRE3-TK) prepared by the reference 4a, 10 ng/mL of phRL-TK vector (manufactured by Promega Corporation) and 2 μL/mL of lipofectamine.

| inhibition at 10 µM (at 10 μM test compound, CV-1 cells expressing human PPARγ and RXRα, pioglitazone as stimulant, read-out: Human PPARγ antagonist activities, Inhibition % at 10 μM) [%] | SMILES | IC50 [nM] |
| --- | --- | --- |
| – | COc1cc(Cn2c3ccccc3c3c(OC(C)(C)C(=O)O)cccc32)ccc1OCc1nc(-c2ccccc2)oc1C [Example 3, 2-{9-[3-methoxy-4-((5-methyl-2-phenyl-oxazole-4-yl)methoxy)-benzyl]-9H-carbazole-4-yloxy}-2-methyl-propionic acid] | 420 |
| – | COc1cc(Cn2c3ccccc3c3c(OC(C)(C)C(=O)O)cccc32)ccc1OCc1nc(-c2cccs2)oc1C [Example 8, 2-{9-[3-methoxy-4-((5-methyl-2-(thiophene-2-yl)-oxazole-4-yl)methoxy)-benzyl]-9H-carbazole-4-yloxy}-2-methyl-propionic acid] | 545 |
| – | COc1cc(Cn2c3ccccc3c3c(OC(C)(C)C(=O)[O-])cccc32)ccc1OCc1nc(-c2cccs2)oc1C.[Na+] [Example 32] | 422 |
| – | COc1cc(Cn2c3ccccc3c3c(OCC(C)(C)C(=O)O)cccc32)ccc1OCc1nc(-c2cccs2)oc1C [Example 24, 3-{9-[3-methoxy-4-((5-methyl-2-(thiophene-2-yl)-oxazole-4-yl)methoxy)-benzyl]-9H-carbazole-4-yloxy}-2,2-dimethyl-propionic acid] | 71 |
| – | COc1cc(Cn2c3ccccc3c3c(OCC(C)(C)C(=O)O)cccc32)ccc1OCc1nc(-c2ccco2)oc1C [Example 23, 3-{9-[4-((2-(furan-2-yl)-5-methyl-oxazole-4-yl)methoxy)-3-methoxy-benzyl]-9H-carbazole-4-yloxy}-2,2-dimethyl-propionic acid] | 93 |
| – | CC[C@H](Oc1cccc2c1c1ccccc1n2Cc1ccc(OCc2nc(-c3ccccc3)oc2C)c(OC)c1)C(=O)[O-].[Na+] [Example 38, sodium (S)-(+)-2-{9-[3-methoxy-4-((5-methyl-2-phenyl-oxazole-4-yl)methoxy)-benzyl]-9H-carbazole-4-yloxy}butyrate] | 330 |
| – | COc1cc(Cn2c3ccccc3c3c(OCC(C)(C)C(=O)O)cccc32)ccc1OCc1nc(-c2ccncc2)oc1C [Example 25, 3-{9-[3-methoxy-4-((5-methyl-2-pyridine-4-yl-oxazole-4-yl)methoxy)-benzyl]-9H-carbazole-4-yloxy}-2,2-dimethyl-propionic acid] | 430 |
| 38.2 | COc1cc(Cn2c3ccccc3c3c(OC(C)(C)C(=O)O)cccc32)ccc1OCc1sc(-c2ccccc2)nc1C [Example 16, 2-{9-[3-methoxy-4-((4-methyl-2-phenyl-thiazole-5-yl)methoxy)-benzyl]-9H-carbazole-4-yloxy}-2-methyl-propionic acid] | – |
| – | COc1cc(Cn2c3ccccc3c3c(OCC(C)(C)C(=O)O)cccc32)ccc1OCc1nc(-c2ccccc2)oc1C [Example 22, 3-{9-[3-methoxy-4-((5-methyl-2-phenyl-oxazole-4-yl)methoxy)-benzyl]-9H-carbazole-4-yloxy}-2,2-dimethyl-propionic acid] | 122 |
| – | CCC(Oc1cccc2c1c1ccccc1n2Cc1ccc(OCc2nc(-c3ccccc3)oc2C)c(OC)c1)C(=O)O (racemic) [Example 5, (±)-2-{9-[3-methoxy-4-((5-methyl-2-phenyl-oxazole-4-yl)methoxy)-benzyl]-9H-carbazole-4-yloxy}butyric acid] | 353 |
| – | CCC(Oc1cccc2c1c1ccccc1n2Cc1ccc(OCc2nc(-c3ccccc3)oc2C)c(OC)c1)C(=O)[O-].[Na+] (centres unmarked) [Example 31] | 406 |
| – | COc1cc(Cn2c3ccccc3c3c(OC(C)(C)C(=O)O)cccc32)ccc1OCc1nc(-c2ccccc2)sc1C [Example 15, 2-{9-[3-methoxy-4-((5-methyl-2-phenyl-thiazole-4-yl)methoxy)-benzyl]-9H-carbazole-4-yloxy}-2-methyl-propionic acid] | 5980 |
| – | COc1cc(Cn2c3ccccc3c3c(OC(C)(C)C(=O)[O-])cccc32)ccc1OCc1nc(-c2ccccc2)oc1C.[Na+] [Example 28, sodium 2-{9-[3-methoxy-4-((5-methyl-2-phenyl-oxazole-4-yl)methoxy)-benzyl]-9H-carbazole-4-yloxy}-2-methyl-propionate] | 398 |
| – | Cc1oc(-c2ccccc2)nc1COc1ccc(Cn2c3ccccc3c3c(OC(C)(C)C(=O)O)cccc32)cc1 [Example 13, 2-methyl-2-{9-[4-((5-methyl-2-phenyl-oxazole-4-yl)methoxy)-benzyl]-9H-carbazole-4-yloxy}propionic acid] | 5870 |
| – | COc1cc(Cn2c3ccccc3c3c(OCC(C)(C)C(=O)[O-])cccc32)ccc1OCc1nc(-c2ccccc2)oc1C.[Na+] [Example 34] | 85 |
| – | COc1cc(Cn2c3ccccc3c3c(OC(C)(C)C(=O)O)cccc32)ccc1OCc1nc(-c2ccncc2)oc1C [Example 9, 2-{9-[3-methoxy-4-((5-methyl-2-(pyridine-4-yl)-oxazole-4-yl)methoxy)-benzyl]-9H-carbazole-4-yloxy}-2-methyl-propionic acid] | 5140 |
| – | COc1cc(Cn2c3ccccc3c3c(OCCC(C)C(=O)O)cccc32)ccc1OCc1nc(-c2ccccc2)oc1C (racemic) [Example 27, (±)-4-{9-[3-methoxy-4-((5-methyl-2-phenyl-oxazole-4-yl)methoxy)-benzyl]-9H-carbazole-4-yloxy}-2-methyl-butyric acid] | 688 |
| – | COc1cc(Cn2c3ccccc3c3c(OC(C)C(=O)O)cccc32)ccc1OCc1nc(-c2ccccc2)oc1C (racemic) [Example 4, (±)-2-{9-[3-methoxy-4-((5-methyl-2-phenyl-oxazole-4-yl)methoxy)-benzyl]-9H-carbazole-4-yloxy}propionic acid] | 939 |
| – | COc1cc(Cn2c3ccccc3c3c(OC(C)C(=O)[O-])cccc32)ccc1OCc1nc(-c2ccccc2)oc1C.[Na+] (racemic) [Example 30] | 983 |
| – | COc1cc(Cn2c3ccccc3c3c(O[C@H](C)C(=O)[O-])cccc32)ccc1OCc1nc(-c2ccccc2)oc1C.[Na+] [Example 43, sodium (R)-2-{9-[3-methoxy-4-((5-methyl-2-phenyl-oxazole-4-yl)methoxy)-benzyl]-9H-carbazole-4-yloxy}propionate] | 1120 |
